According to patent US20240398697A1, “Injectable Formulations” (The University of Liverpool, priority 2021, published 2024):
Read-outs that look alike come from different tables or passages of the source.

How the values were obtained:
[1] = Terminal half-life of conventional aqueous formulations injected intramuscularly; set-up: species or system adult male Wistar rats; settings: male, Wistar, rat, in vivo, im
From the text: The foregoing experiments have shown that solid compositions comprising microparticles of glecaprevir and/or pibrentasvir may be formed through combination with certain first and second excipients. […] The solid compositions have also been reformulated into implantable rods, and microneedle arrays. Any of the solid compositions, aqueous dispersions, implantable rods, and microneedle arrays are expected to be therapeutically useful based on the known therapeutic uses of glecaprevir and pibrentasvir and the well-tolerated nature of the first and second excipients used. In addition, the form of the solid composition, aqueous dispersion, implantable rod, and microneedle array are expected to provide enhanced pharmacokinetic properties and therapeutic benefits when compared to conventional glecaprevir and pibrentasvir orally-dosed formulations. […] In particular, the formulations comprising microparticles of glecaprevir and/or pibrentasvir as described herein are expected to greatly improve the terminal half-life of the glecaprevir and/or pibrentasvir in vivo as compared to conventional aqueous formulations in which the glecaprevir and/or pibrentasvir are solubilised through addition of DMSO, when the formulations are delivered as intramuscular and/or subcutaneous injections.

[2] = Ex vivo skin deposition, modified Franz diffusion cell; assay type: in vitro ADME
Method: Ex vivo skin deposition experiments were carried out utilising a modified Franz diffusion cell. Full thickness skin was collected and excised within 24 hours of birth. On the day of the experiment, the skin was first pre-equilibrated in PBS at pH 7.4 for 30 minutes until totally thawed and then carefully shaved using a razor. It was then cyanoacrylate-glued to the donor compartment of the Franz diffusion cells to ensure its adhesion to the set up during the microneedle insertion and throughout the experiment. Microneedle arrays were applied to the skin using firm thumb pressure for 30 seconds. A stainless-steel cylinder (diameter 11 mm, mass 11.5 g) was put on the top of each microneedle array to hold them in place throughout the experiment. The receiver compartment was filled with 12 mL of 1% w/v SLS in PBS (pH 7.4). The donor compartment was clamped on top of the receiver compartment and wrapped with Parafilm® M to prevent solvent evaporation. Samples of 200 μL of the receiver compartment were taken at predefined time points of 0.5, 1, 1.5, 2, 3, 4, 6, 10, and 24 hours and was replaced with the fresh release medium. At 24 hours, the Franz cells were disassembled, the skin surface dabbed clean to remove surface drug, and glecaprevir and pibrentasvir were extracted from skins. Cumulative amounts of glecaprevir and pibrentasvir delivered from each formulation to both skin and receiver compartments were also determined. To extract the drug from the skin, skin samples collected at 24 hours were cut into small pieces, where 0.5 ml of water was added to each sample. They were then homogenised for 15 minutes using a Tissue Lyser LT. Subsequently, 1 mL of methanol was added, and samples were homogenised again for another 15 minutes. Then they were transferred to the tubes followed by adding 3.5 mL of methanol. After a 30-min sonication, 100 μL of the samples were diluted to 1 mL by PBS buffer. The samples were vortexed and centrifuged, then analysed by HPLC.

[3] = In vivo plasma concentration after microneedle, intramuscular and intravenous administration (Example 22); set-up: species or system Female Sprague-Dawley rats; settings: 5 mg/kg IV in DMSO/PEG 400/cyclodextrin; monitored 48 hour
Method: Animals were separated into three cohorts; each was comprised of 6 rats. Every 3 rats were housed in a different cage. Each rat of the first cohort (rats 1-6) received four microneedle arrays with a total dose of 16 mg (8 mg of glecaprevir and 8 mg of pibrentasvir). The second cohort (rats 7-12) received intramuscular injections of glecaprevir and pibrentasvir. For each rat, 37.5 mg of the glecaprevir30/pibrentasvir30/[…]10 formulation was dispersed in 300 μL of sterile water, then 150 μL of the solution was injected into each thigh of the rat. The dose given to each rat was approximately […]. The final cohort (rats 13-18) received 5 mg/kg of glecaprevir and pibrentasvir given as IV injections. The IV formulations were prepared by dissolving each drug in 5% v/v DMSO, 10% v/v PEG 400 in water diluted with 20% v/v hydroxy-B-cyclodextrin in water. To minimise the interference of hair in application of the microneedle arrays, the dorsal hair of the rats from the first cohort (rats 1-6) was removed prior to the experiment. The bulk hair was shaved using an electric hair clipper and the remaining hair residuals were removed using depilatory hair removal cream. Rats were then left for a 24 hour period to allow the skin to recover and to ensure complete restoration of skin barrier function before affixing the microneedle arrays. […]

Compound	half-life ([1]; conventional aqueous formulation (solubilised through addition of DMSO), injected intramuscularly, read-out: terminal half-life (converted)) [h]	deposited into the skin ([2]; from microneedle arrays, over 24 h) [µg]	delivered to the receiver compartment of the Franz diffusion cells ([2]; from microneedle arrays, over 24 h, receiver 1% w/v SLS in PBS pH 7.4) [µg]	total amount delivered to the skin and receiver compartment ([2]; from microneedle arrays, over 24 hours) [µg]	total amount delivered as share of drug initially present in the microneedle arrays ([2]; over 24 hours) [%]	plasma concentration after intravenous (IV) administration [3]	half-life [1] [h]	delivered to the receiver compartment of the Franz diffusion cells ([2]; 24 h, pH 7.4) [µg]	deposited into the skin ([2]; 24 h, pH 7.4) [µg]	total amount delivered as share of drug initially present in the microneedle arrays ([2]; 24 h, pH 7.4) [%]	total amount delivered to the skin and receiver compartment ([2]; 24 h, pH 7.4) [µg]
CC(C)(C)[C@@H]1NC(=O)O[C@@H]2CCC[C@H]2OC/C=C/C(F)(F)c2nc3ccccc3nc2O[C@@H]2C[C@@H](C(=O)N[C@]3(C(=O)NS(=O)(=O)C4(C)CC4)C[C@H]3C(F)F)N(C2)C1=O [glecaprevir, Glecaprevir]	4	285.2 ± 51.3	203.9 ± 41.3	489.1 ± 68.6	25.1±3.5	subsided quickly within the 48 hour period	–	–	–	–	–
COC(=O)N[C@H](C(=O)N1CCC[C@H]1c1nc2cc([C@H]3CC[C@H](c4cc5nc([C@@H]6CCCN6C(=O)[C@@H](NC(=O)OC)[C@@H](C)OC)[nH]c5cc4F)N3c3cc(F)c(N4CCC(c5ccc(F)cc5)CC4)c(F)c3)c(F)cc2[nH]1)[C@@H](C)OC [pibrentasvir, Pibrentasvir]	–	–	–	–	–	–	10	115.2 ± 29	304 ± 45.7	23.4±3.2	419.2 ± 56.6
